Results on 13 compounds are retold here after ChEMBL document CHEMBL1201862, “PubChem BioAssay data set” (2004).

Assay in all cases: DTP human tumour cell line panel, 48 h
Experiment [1] relates to A549.
Experiment [2] relates to DLD-1.
Experiment [3] has as its system DMS-273.
For experiment [4], the system named is EKVX.
Experiment [5] has as its system HCT-15.
The test system of experiment [6] is HL-60.
Experiment [7] relates to HOP-92.
Experiment [8] relates to IGROV-1.
For experiment [9], the system named is M19-MEL.
In experiment [10] the test system is RXF 393.
The test system of experiment [11] is SF-268.
The test system of experiment [12] is SF-539.
In experiment [13] the test system is SK-MEL-28.
In experiment [14] the test system is SK-OV-3.
Experiment [15] relates to SW-620.
Experiment [16] concerns NCI-H226.
Experiment [17] relates to NCI-H522.
In experiment [18] the test system is SNB-78.
The test system of experiment [19] is COLO 205.
In experiment [20] the test system is MCF7.

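96-well plates; 48 h exposure; 5 concentrations. Endpoints by linear interpolation between flanking doses. Not reached: highest tested concentration assigned. Abbreviation: GI50, concentration required for 50% inhibition of growth.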 Calls of active or inactive are those of the source. Rule as the data show it: active = GI50 up to about 1.1 µM and inactive = higher.

As usually defined, the GI50 is the concentration that inhibits growth by half. For `Clc1cccc(C2N3CCCCC3[C@@H]3c4[nH]c5ccccc5c4CCN23)c1` (stereo partly specified), the GI50 in experiment [1] was 43.9 µM (inactive); in experiment [2], 30.3 µM (inactive); in [3], 30.1 µM (inactive); in experiment [4], 56 µM (inactive); in experiment [5], 48.2 µM; in experiment [6], 18.7 µM (inactive). Also, the GI50 in [7] is 62.5 µM (inactive); in [8] it was 50.8 µM (inactive); in experiment [9], 20.1 µM (inactive); in experiment [10], 27 µM (inactive); in experiment [11], 33.1 µM (inactive); in experiment [12] it was 21.1 µM (inactive). Moreover, the GI50 is 22.8 µM (inactive) in experiment [13], 46.9 µM (inactive) in [14] and 44.4 µM (inactive) in experiment [15].

`O=C(Nc1ccc(Cl)cc1Cl)C1C(=O)C(=O)N(c2ccc(Cl)cc2Cl)C1=O` (stereo unspecified): the GI50 in experiment [1] is > 100 µM (inactive); in experiment [2], > 100 µM (inactive); in [4] it was > 100 µM (inactive); in [5], over 100 µM; in experiment [6], > 100 µM (inactive); in experiment [8], > 100 µM (inactive). Further, the GI50 in experiment [9] is > 100 µM (inactive); in experiment [16] it was 34.1 µM (inactive); in [17], > 100 µM (inactive); in [10], 37.8 µM (inactive); in experiment [11] it was > 100 µM (inactive); in experiment [12], > 100 µM (inactive). Moreover, the GI50 in [13], in [14], in experiment [18] and in [15] was > 100 µM (inactive) in each case.

For the compound `CS/C(=N\c1ccc([N+](=O)[O-])cc1C#N)NC(=O)c1ccccc1`, the GI50 in experiment [1] was > 100 µM (inactive); in experiment [19] it was > 100 µM (inactive); in experiment [2], > 100 µM (inactive); in experiment [4], 94.8 µM (inactive); in experiment [5], over 100 µM; in experiment [6], > 100 µM (inactive). Also, the GI50 in experiment [7] was 46 µM (inactive); in experiment [8], > 100 µM (inactive); in [9], > 100 µM (inactive); in [16] it was 33.9 µM (inactive); in experiment [10], 40.4 µM (inactive); in [11] it was > 100 µM (inactive). Also, the GI50 in experiment [12], in experiment [13], in experiment [18] and in experiment [15] was > 100 µM (inactive) in each case.

As for `O=C(/C=N/O)Nc1ccc(Cl)c(I)c1`, the GI50 was 26.9 µM (inactive) in experiment [1]; 13.6 µM (inactive) in [19]; 27.1 µM (inactive) in experiment [2]; 18.4 µM (inactive) in experiment [3]; 10.8 µM (inactive) in experiment [4]; 14.4 µM in experiment [5]. In addition, the GI50 in [6] is 19.3 µM (inactive); in [8] it was 8.61 µM (inactive); in experiment [9], 22.4 µM (inactive); in [16] it was 0.0445 µM (active); in experiment [17] it was 14.7 µM (inactive); in [10], 16.8 µM (inactive). For the same compound, the GI50 in [11] was 19.2 µM (inactive); in [13] it was 27.7 µM (inactive); in experiment [14] it was 17.8 µM (inactive); in experiment [15] it was 34.4 µM (inactive).

`CN(CCN(C)C(=O)CCn1ccc(=O)[nH]c1=O)C(=O)CCn1ccc(=O)[nH]c1=O`: the GI50 was > 100 µM (inactive) in experiment [1]; > 100 µM (inactive) in experiment [19]; > 100 µM (inactive) in experiment [3]; > 100 µM (inactive) in experiment [4]; over 100 µM in experiment [5]; > 100 µM (inactive) in experiment [6]. Besides, the GI50 in experiment [8], in experiment [9], in experiment [16], in experiment [17], in [10] and in [11] was > 100 µM (inactive) each time. Moreover, the GI50 in [12], in experiment [13], in experiment [18] and in [15] was > 100 µM (inactive) throughout.

With `NC(=O)N=C(NCc1ccccc1)NCc1ccccc1`, the GI50 in experiment [1] is > 100 µM (inactive); in experiment [19] it was > 100 µM (inactive); in [2], > 100 µM (inactive); in experiment [3] it was > 100 µM (inactive); in experiment [4], > 100 µM (inactive); in experiment [5], over 100 µM. Further, the GI50 in [7] is 20 µM (inactive); in experiment [8] it was > 100 µM (inactive); in [17], > 100 µM (inactive); in [11] it was > 100 µM (inactive); in experiment [12] it was > 100 µM (inactive); in [13], > 100 µM (inactive). Further, the GI50 in experiment [14], in experiment [18] and in experiment [15] was > 100 µM (inactive) throughout.

On to `N#CC(c1ccccc1)N(CCc1ccccc1)C(=O)c1ccccc1` (stereo unspecified), for which the GI50 is > 100 µM (inactive) in experiment [1]; > 100 µM (inactive) in [19]; > 77.4 µM (inactive) in [4]; over 100 µM in experiment [5]; > 100 µM (inactive) in [6]; 20 µM (inactive) in experiment [7]. Further, the GI50 in experiment [8] is > 74 µM (inactive); in experiment [20], > 100 µM (inactive); in experiment [16], > 58.7 µM (inactive); in experiment [17], > 59.2 µM (inactive); in experiment [10] it was > 52.1 µM (inactive); in experiment [11], 30.2 µM (inactive). Further, the GI50 in experiment [12] was 31.3 µM (inactive); in experiment [13], > 100 µM (inactive); in experiment [14], 53.3 µM (inactive); in [15], > 100 µM (inactive).

`C=CCc1cccc2cc(C(=O)NCc3ccccc3)c(=N)oc12`: the GI50 was 40.1 µM (inactive) in [1]; 40.6 µM (inactive) in experiment [19]; 26.1 µM (inactive) in [4]; 32.2 µM in experiment [5]; 25.3 µM (inactive) in [6]; 48.5 µM (inactive) in experiment [7]. In addition, the GI50 is 24.9 µM (inactive) in experiment [8]; 47.8 µM (inactive) in experiment [20]; 24.2 µM (inactive) in experiment [16]; 18.1 µM (inactive) in [17]; 46.3 µM (inactive) in experiment [10]; 36.1 µM (inactive) in experiment [11]. Moreover, the GI50 in experiment [12] is 47.5 µM (inactive); in experiment [13], 30.7 µM (inactive); in [14], 46.2 µM (inactive); in [15] it was 49.4 µM (inactive).

With `CCOC(=O)c1cccc(/N=N/c2ncc(/C=C/C(=O)OC)[nH]2)c1`, the GI50 in [1] was 24.5 µM (inactive); in experiment [19] it was 18.8 µM (inactive); in [4], 27.7 µM (inactive); in [5], 9.59 µM; in experiment [6], 5.97 µM (inactive); in [7], 32.1 µM (inactive). The GI50 is 20.6 µM (inactive) in [8]; 21.6 µM (inactive) in experiment [20]; 36.1 µM (inactive) in experiment [16]; 15.7 µM (inactive) in experiment [17]; 29.9 µM (inactive) in [10]; 26.8 µM (inactive) in [11]. Moreover, the GI50 in experiment [12] is 21.5 µM (inactive); in [13], 27 µM (inactive); in experiment [14], 55.7 µM (inactive); in experiment [15], 26.5 µM (inactive).

Turning to `C/C(=N/c1[nH]c(=O)cc2c1C(=O)CC2)N(C)C`, the GI50 in [1] was > 200 µM (inactive); in [19], > 200 µM (inactive); in experiment [4], > 200 µM (inactive); in experiment [5] it was over 200 µM; in experiment [6], > 200 µM (inactive); in experiment [7], > 200 µM (inactive). For the same compound, the GI50 in experiment [8], in [20], in experiment [16], in experiment [17], in experiment [10] and in experiment [11] was > 200 µM (inactive) throughout. The GI50 in experiment [12], in experiment [13], in experiment [14] and in experiment [15] was > 200 µM (inactive) throughout.

`CS/C(=N\C#N)NC1CC(n2cc(C)c(=O)[nH]c2=O)OC1CO` (stereo unspecified): the GI50 in experiment [1] is > 100 µM (inactive); in experiment [19], > 100 µM (inactive); in experiment [4], > 100 µM (inactive); in experiment [5], over 100 µM; in [6], > 100 µM (inactive); in experiment [7], > 100 µM (inactive). In addition, the GI50 in [8], in experiment [20], in experiment [16], in experiment [17], in [10] and in experiment [11] was > 100 µM (inactive) each time. Moreover, the GI50 in [12], in [13], in [14] and in experiment [15] was > 100 µM (inactive) in each case.

`COc1ccc(CCNC2=CC(=O)c3ncccc3C2=O)cc1OC`: the 50% growth inhibitory concentration (GI50) in experiment [1] was 0.918 µM (active); in experiment [19], 1.79 µM (inactive); in experiment [4] it was 5.5 µM (inactive); in experiment [5] it was 0.918 µM; in experiment [6], 2.82 µM (inactive); in experiment [7], 8.95 µM (inactive). The GI50 in experiment [8] is 1.55 µM (inactive); in experiment [20] it was 1.38 µM (inactive); in [16], 1.42 µM (inactive); in experiment [17] it was 2.11 µM (inactive); in [10] it was 3.9 µM (inactive); in [11], 5.18 µM (inactive). Moreover, the GI50 is 2.07 µM (inactive) in [12], 1.47 µM (inactive) in [13], 10.2 µM (inactive) in experiment [14] and 1.68 µM (inactive) in experiment [15].

As for `COc1ccc(Nc2nc(N)c(C(=O)c3ccco3)s2)cc1`, the GI50 in experiment [1] was 27.3 µM (inactive); in [19] it was 13.4 µM (inactive); in experiment [4], > 58.3 µM (inactive); in [5] it was 6.58 µM; in experiment [6], 5.04 µM (inactive); in [7], > 92.7 µM (inactive). In addition, the GI50 is 10.7 µM (inactive) in experiment [8]; 6.81 µM (inactive) in [20]; 33.9 µM (inactive) in experiment [16]; 7.71 µM (inactive) in experiment [17]; 31.8 µM (inactive) in [10]; 39.3 µM (inactive) in experiment [11]. Moreover, the GI50 in experiment [12] is 16.6 µM (inactive); in [13], > 88.7 µM (inactive); in experiment [14], 35 µM (inactive); in experiment [15], 13.2 µM (inactive).
